Earlier results on two molecules are cited in patent publication US5277910A, “Process for the preparation of a pharmaceutical composition selectively lowering the blood-lipid level” (priority 1991, dated 1994).

The test system of one data set is monkeys. The following applies: monkeys fed with alfalfa; in words.
For data set [1] the following is noted: in words.

As for `N=C(N)NOCCC(N)C(=O)O` (centres unmarked) [Canavanine, 2-amino-4-(guanidinooxy)-butyric acid], the induced syndrome entry with monkeys is on record as “induces a syndrome resembling lupus erithemathosus”.

With `O=c1oc2cc(O)ccc2c2oc3cc(O)ccc3c12` [coumestrol], the uterotrophic activity entry in data set [1] is reported as “high uterotrophic activity”.
